The values below come from EP2114875B1, “SUBSTITUTED ARYLCYLOPENTENES AS THERAPEUTIC AGENTS” (ALLERGAN, INC., priority 2007, dated 2008).

Test [1] addresses T1, hEP2 (Homo sapiens, UniProt P43116). Kind of test: hEP2 flipr assay. The format is cell-based. An excerpt:
(§1) United States Patent Application Serial No. 11/553,143, filed on October 26, 2006, describes the methods used to obtain the in vitro data in the table below.

The target of test [2] is T1, hEP2. The test is described as follows: hEP2 cAMP assay. The format is cell-based.
From the text: as §1
(In general: Cyclic AMP is a second messenger, typically raised through Gs and lowered through Gi signalling.)

Test [3] deals with T1, hEP2. The test is described as follows: hEP2 binding. Conditions: read-out: hEP2 Kl.
From the text: as §1

Test [4] has as its target T2, hEP4 (Homo sapiens, UniProt P35408). The test is described as follows: hEP4 flipr assay. It counts as cell-based.
From the text: as §1

Test [5] addresses T2, hEP4. The test is described as follows: hEP4 binding.
From the text: as §1

T1 sequence (P43116 whole entry): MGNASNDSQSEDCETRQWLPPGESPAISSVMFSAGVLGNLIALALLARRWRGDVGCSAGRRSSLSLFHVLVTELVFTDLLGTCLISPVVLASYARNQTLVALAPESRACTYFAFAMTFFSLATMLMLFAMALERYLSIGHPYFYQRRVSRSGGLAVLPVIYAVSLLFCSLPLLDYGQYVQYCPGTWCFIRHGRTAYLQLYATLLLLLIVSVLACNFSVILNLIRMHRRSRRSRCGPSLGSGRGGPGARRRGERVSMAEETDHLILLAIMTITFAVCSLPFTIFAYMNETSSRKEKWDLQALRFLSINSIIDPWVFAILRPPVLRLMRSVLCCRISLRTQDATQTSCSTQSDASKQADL
T2 sequence (P35408 whole entry): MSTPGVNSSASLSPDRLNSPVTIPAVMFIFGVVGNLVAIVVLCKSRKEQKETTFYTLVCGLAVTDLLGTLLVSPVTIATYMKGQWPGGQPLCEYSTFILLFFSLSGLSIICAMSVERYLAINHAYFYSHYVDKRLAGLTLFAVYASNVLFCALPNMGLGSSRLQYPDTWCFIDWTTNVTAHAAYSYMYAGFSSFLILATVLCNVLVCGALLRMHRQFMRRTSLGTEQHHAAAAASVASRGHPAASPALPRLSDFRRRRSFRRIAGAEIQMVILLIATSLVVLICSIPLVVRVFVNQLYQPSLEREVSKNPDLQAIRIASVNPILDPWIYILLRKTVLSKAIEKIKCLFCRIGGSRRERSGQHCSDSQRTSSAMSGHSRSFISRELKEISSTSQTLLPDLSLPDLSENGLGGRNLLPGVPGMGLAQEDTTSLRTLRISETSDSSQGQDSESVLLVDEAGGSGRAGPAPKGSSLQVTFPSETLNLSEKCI

The EC50 is the midpoint of the concentration-response curve. A low value points to an effect from little substance. With `O=C(O)c1ccc(CCCC2=CC[C@@H](O)[C@@H]2COc2cc(Cl)cc(Cl)c2)s1` [Example 1, 5-{3[(4R,5S)-5-(3,5-Dichloro-phenoxymethyl)-4-hydroxy-cyclopent·1-enyl]-propyl}-thiophene-2-carboxylic acid], the figures for the EC50 on hEP2 [1], at hEP2 [2] and on hEP4 [4] were 0.424 µM, 0.0048 µM and > 10 µM, respectively. The Ki was 0.081 µM at hEP2 [3] and 1.58 µM at hEP4 [5].
